{"source": "paper PMC7804942", "about": "“The amphibian peptide Yodha is virucidal for Zika and dengue viruses” (Scientific Reports, 2021)", "key": {"DENV3": {"test_system": "DENV3", "settings": "FFA", "procedure": "Dengue virus strains 1, 2, 3 and 4 were treated with wither Yodha or control OVA peptide at (A) 50 µM (B) 160 µM concentration and the % of viral focus forming units were determined. (C) IC50 measurement of Yodha in DENVs infection by FFA. […] OVA peptide was used a negative control.\n(§1) Peptides were incubated with ZIKV (100 FFU/well) for 2 h at 37 °C. This incubated mixture was used to infect Vero cells for 1.5 h at 37 °C. Cells and inoculum were overlaid with 2% methylcellulose solution (OptiMEM; Gibco) and incubated for 72 h at 37 °C. Cells were washed with PBS and fixed with a 1:1 methanol/acetone mixture for 30 min. Cells were blocked with 5% milk/PSB at room temperature for 20 min and incubated with primary antibody (anti-flavivirus mouse 4G2[10] antibody) for 2 h at 37 °C. Then, cells were incubated with secondary antibody (HRP-conjugated goat anti-mouse IgG, Cell Signaling) for 1 h at 37 °C. Cells were developed with TrueBlue Peroxidase Substrate (KPL). Plates were read on a CTL-ImmunoSpot S6 Micro analyzer."}, "ZIKV": {"test_system": "ZIKV", "test": "ZIKV entry into Vero cells, viral RNA by qRT-PCR", "format": "cell-based, Zika virus", "settings": "ZIKV treated with 200 µM peptide for 30 min, MOI 0.5, 30 min infection, qRT-PCR normalised to GAPDH", "procedure": "Next, we determined whether the observed Yodha peptide-induced decrease in viral titers was due to blocked viral entry. We reasoned that if the peptide directly kills or disrupts the envelope structure of ZIKV, this would prevent virus entry. To test this, we designed an experiment to measure virus entry, by allowing ZIKV to bind cells at 4 °C for 1 h followed by shifting the cells to 37 °C to permit virus entry (Fig. 2A). It has been shown that DENV2 entry occurs within 25 min by early endosome trafficking. Briefly, we exposed ZIKV to Yodha peptide and then allowed the virus to infect Vero cells for 30 min. We then measured viral RNA within the Vero cells by quantitative Real Time-PCR (qRT-PCR) (Fig. 2B). […] Next, we visualized ZIKV entry or lack thereof by immunofluorescence using antibodies against pan flavivirus E protein. […] We collected culture supernatants at 3, 24, 48, and 72 h after ZIKV infection to quantitate ZIKV by FFU assay (Fig. 2E). ZIKV was not detected at 3 h post-infection in both OVA- or Yodha-treated cells. […]\nFigure 2 Yodha peptide inhibits ZIKV entry into cells. […] (B) ZIKV was treated with 200 µM of Yodha or control OVA peptide for 30 min and then used to infect Vero cells at a MOI of 0.5 and expression of ZIKV RNA was determined by quantitative RT-PCR (qRT-PCR). […] Error bars indicate the SEM of four technical replicates statistical significance was assessed by a 2-way ANOVA. […]"}, "ZIKV (PRVABC59 strain)": {"test_system": "ZIKV (PRVABC59 strain)", "settings": "for reduction of ZIKV: dose escalation", "procedure": "We screened frog skin peptides to identify peptides with potentially virucidal activity against ZIKV infection. Briefly, we incubated individual peptides with ZIKV (PRVABC59 strain) for 2 h and then tested viral viability in a focus-forming assay. […] A significant drawback of host defense peptides is that they can be toxic to mammalian cells. To identify non-toxic candidates among the 12 peptides, we measured the toxicity of each peptide against human erythrocytes. […] The C-terminus of Yodha peptide contains three negatively charged amino acids.\nas §1, with “Peptides were incubated with ZIKV (100 FFU/well) for 2 h at 37 °C.” left out"}, "[1]": {"test_system": "ZIKV DakAr41524 (Senegal 1984)", "test": "Focus forming assay, ZIKV strain panel", "format": "cell-based, Zika virus", "settings": "50 µM and 100 µM peptide vs OVA control, FFA", "procedure": "(§2) For all our experiments in Fig. 1, we used the PRVABC59 (Puerto Rico 2015) strain of ZIKV. […] The Yodha peptide inhibited all ZIKV strains (Fig. 1H,I).\nas §1"}, "[2]": {"test_system": "ZIKV MR-766 (Uganda, 1947)", "test": "Focus forming assay, ZIKV strain panel", "format": "cell-based, Zika virus", "settings": "50 µM and 100 µM peptide vs OVA control, FFA", "procedure": "as §2, §1"}, "[3]": {"test_system": "ZIKV P6-740 (Malaysia, 1966)", "test": "Focus forming assay, ZIKV strain panel", "format": "cell-based, Zika virus", "settings": "50 µM and 100 µM peptide vs OVA control, FFA", "procedure": "as §2, §1"}}, "note": "Like-named read-outs stand apart in the source and are kept apart here. Where a SMILES comes first, the peptide text is derived from it.", "data": [{"compound": "CC[C@H](C)[C@H](NC(=O)[C@@H](NC(=O)CNC(=O)[C@H](CC(C)C)NC(=O)[C@H](Cc1ccccc1)NC(=O)[C@H](Cc1ccccc1)NC(=O)[C@H](CC(C)C)NC(=O)[C@H](CC(C)C)NC(=O)[C@H](CC(C)C)NC(=O)[C@H](CCSC)NC(=O)[C@@H](N)CO)[C@@H](C)O)C(=O)N[C@@H](CO)C(=O)N[C@@H](CC(C)C)C(=O)N[C@@H](CO)C(=O)N[C@@H](CC(C)C)C(=O)N[C@@H](CS)C(=O)N[C@@H](CCC(N)=O)C(=O)N[C@@H](CC(=O)O)C(=O)N[C@@H](CC(=O)O)C(=O)N[C@@H](CCC(N)=O)C(=O)N[C@@H](CCC(=O)O)C(=O)N[C@@H](CCCNC(=N)N)C(=O)N[C@@H](CS)C(=O)O", "note": "[Yodha] (H-SMLLLFFLGTISLSLCQDDQERC-OH; N-terminus and C-terminus assumed)", "values": [{"measurement": "inhibition of DENV3", "setting": "DENV3; 50 µM peptide", "result": "not DENV3"}, {"measurement": "inhibition of DENV3", "setting": "DENV3; 160 µM peptide", "result": "very efficient"}, {"measurement": "ZIKV RNA expressed compared to the OVA and virus-only controls", "setting": "ZIKV", "result": 20, "unit": "%"}, {"measurement": "reduction of ZIKV", "setting": "ZIKV (PRVABC59 strain); 10 µM peptide, FFA", "result": 35, "unit": "%"}, {"measurement": "reduction of ZIKV", "setting": "ZIKV (PRVABC59 strain); 20 µM peptide, FFA", "result": 50, "unit": "%"}, {"measurement": "Viral titers (FFU) after timed exposure", "setting": "ZIKV (PRVABC59 strain); 20 µM peptide, exposure 5 min, 15 min, 30 min, 1 h and 2 h, all time points", "result": "significantly decreased"}, {"measurement": "reduction of ZIKV", "setting": "ZIKV (PRVABC59 strain); 40 µM peptide, FFA", "result": 65, "unit": "%"}, {"measurement": "inhibition of ZIKV strain", "setting": "ZIKV (PRVABC59 strain); 50 µM and 100 µM peptide vs OVA control, FFA", "result": "inhibited"}, {"measurement": "reduction of ZIKV", "setting": "ZIKV (PRVABC59 strain); 80 µM peptide, FFA", "result": 80, "unit": "%"}, {"measurement": "reduction of ZIKV", "setting": "ZIKV (PRVABC59 strain); 160 µM peptide, FFA", "result": 90, "unit": "%"}, {"measurement": "IC50", "setting": "ZIKV (PRVABC59 strain); PRVABC59 strain, 2 h", "result": 20, "unit": "µM"}, {"measurement": "time of exposure needed to neutralize / destroy ZIKV", "setting": "ZIKV (PRVABC59 strain); exposure of virus to peptide", "result": "≤ 5", "unit": "min"}, {"measurement": "inhibition of ZIKV strain", "setting": "[1]", "result": "inhibited"}, {"measurement": "inhibition of ZIKV strain", "setting": "[2]", "result": "inhibited"}, {"measurement": "inhibition of ZIKV strain", "setting": "[3]", "result": "inhibited"}]}]}
